Tests used:
[1] = system: NB4 cells; test: Sp110 mRNA level by RNA blot after cellular differentiation; assay type: cell-based, human; details: 1 μM, 48 hours
Description: To investigate the expression of Sp110 in cells of the monocyte/granulocyte lineage, RNA was prepared from the myeloid precursor cell lines HL60 and NB4 (HL60 cells are available from the American Type Culture Collection, Manassas, Va.). […] RNA was fractionated in formaldehyde-agarose gels (5 μg/lane) and equal loading of RNA was confirmed by staining 28S and 18S ribosomal RNA with ethidium bromide. […] Membranes were washed and analyzed by autoradiography. […] To examine the effect of cellular differentiation on Sp110 mRNA, NB4 cells were treated for 48 hours with all trans retinoic acid (ATRA) (1 μM).

[2] = system: human coronary artery smooth muscle cells (hCASMCs) and human umbilical vein endothelial cells (HUVECs); test: Sp110 mRNA expression after cytokine exposure; assay type: cell-based; details: 200 u/ml
Description: Sp110 expression was also examined in human coronary artery smooth muscle cells (hCASMCs) and human umbilical vein endothelial, cells (HUVECs) following exposure to IFNα (200 u/ml). Expression of Sp110 mRNA was induced within 4 hours and reached a maximum level between 8 and 24 hours.

| Molecule | level of Sp110 mRNA [1] | time to induction of Sp110 mRNA expression [2] [h] |
| --- | --- | --- |
| CC1=C(/C=C/C(C)=C/C=C/C(C)=C/C(=O)O)C(C)(C)CCC1 [ATRA, all trans retinoic acid] | increased | – |
| IFNα | – | ≤ 4 |
